From patent US7704995B2 (Exelixis, Inc., priority 2003, dated 2010)
pIC50: −log10 of the molar value. Like-named read-outs stand apart in the source and are kept apart here.

Target: T1, Chk1 (Homo sapiens, UniProt O14757)
T1 construct: purchased Upstate Biotechnology
T1 sequence (O14757 1-476): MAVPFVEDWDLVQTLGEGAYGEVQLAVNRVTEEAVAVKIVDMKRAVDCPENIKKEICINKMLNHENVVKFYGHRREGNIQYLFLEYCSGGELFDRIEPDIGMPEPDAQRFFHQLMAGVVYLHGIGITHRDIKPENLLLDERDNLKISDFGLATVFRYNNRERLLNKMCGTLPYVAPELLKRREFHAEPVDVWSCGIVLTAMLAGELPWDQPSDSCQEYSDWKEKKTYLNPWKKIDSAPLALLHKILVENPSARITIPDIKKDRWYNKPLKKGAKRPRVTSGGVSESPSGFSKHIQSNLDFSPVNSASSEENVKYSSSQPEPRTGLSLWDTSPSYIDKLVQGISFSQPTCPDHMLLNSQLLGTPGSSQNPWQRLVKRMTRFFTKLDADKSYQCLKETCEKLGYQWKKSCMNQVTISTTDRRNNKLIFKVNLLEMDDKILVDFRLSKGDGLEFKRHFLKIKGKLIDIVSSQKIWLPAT
Experiment: Chk1 kinase assay: incorporation of γ-33P ATP into immobilized myelin basic protein
Format: biochemical
Settings: read-out: Chk1 IC50
Outline: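 MBP coated on plates (20 μg/ml) was phosphorylated by Chk1 (10 nM) or Chk2 (20 nM) with γ-33P ATP plus 10 μM (Chk1) or 30 μM (Chk2) unlabeled ATP, 1 h at room temperature, 1% DMSO. Bound radioactivity was counted by scintillation after washing; IC50 or Ki derived from fitted rate data.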

[1] = Table 11, Chk1 only, class symbols A-D

pIC50 | pIC50 (Table 11, Chk1 only) | SMILES | also measured
6.00 to 7.30 | – | CNC(=O)c1nc(-c2cccc(OCCN3CCCC3)c2)cnc1N [Example 191, 3-amino-N-methyl-6-{3-[(2-pyrrolidin-1-ylethyl)oxy]phenyl}pyrazine-2-carboxamide] | –
– | 5.00 to 6.00 | Cc1noc(C)c1NC(=O)NCCCNC(=O)c1nc(-c2cccc(C(=O)NCc3ccccc3)c2)cnc1N [Example 655, 3-amino-N-[3-({[(3,5-dimethylisoxazol-4-yl)amino]carbonyl}amino)propyl]-6-(3-{[(phenylmethyl)amino]carbonyl}phenyl)pyrazine-2-carboxamide] | –
– | 6.00 to 7.30 | COC(=O)c1nc(-c2cccc(CNC3CCc4c(F)ccc(F)c43)c2)cnc1N (centres unmarked) [Example 455, methyl 3-amino-6-(3-{[(4,7-difluoro-2,3-dihydro-1H-inden-1-yl)amino]methyl}phenyl)pyrazine-2-carboxylate] | –
– | ≤ 5.00 | N=C(NN1CCCCC1)c1nc(-c2cccc(C(=O)NCc3ccccc3)c2)cnc1N [Example 622, 3-{5-amino-6-[imino(piperidin-1-ylamino)methyl]pyrazin-2-yl}-N-(phenylmethyl)benzamide] | –
– | ≤ 5.00 | CC(C)(C)OC(=O)N1CCC(CNC(=O)c2nc(-c3cccc(C(=O)NCc4ccccc4)c3)cnc2N)CC1 [Example 563, 1,1-dimethylethyl 4-[({[3-amino-6-(3-{[(phenylmethyl)amino]carbonyl}phenyl)pyrazin-2-yl]carbonyl}amino)methyl]piperidine-1-carboxylate] | –
> 7.30 | – | CNC(=O)c1nc(-c2cccc(C(=O)NCc3cc(F)cc(F)c3)c2)cnc1N [Example 339, 3-amino-6-[3-({[(3,5-difluorophenyl)methyl]amino}carbonyl)phenyl]-N-methylpyrazine-2-carboxamide] | –
– | 6.00 to 7.30 | CNC(=O)c1nc(-c2cccc(CNCc3cnc(C)cn3)c2)cnc1N [Example 435, 3-amino-N-methyl-6-[3-({[(5-methylpyrazin-2-yl)methyl]amino}methyl)phenyl]pyrazine-2-carboxamide] | –
– | > 7.30 | Nc1ncc(-c2cccc(CN[C@H]3CCc4ccccc43)c2)nc1-c1nc(-c2ccncc2)n[nH]1 [Example 723, 5-(3-{[(1S)-2,3-dihydro-1H-inden-1-ylamino]methyl}phenyl)-3-(3-pyridin-4-yl-1H-1,2,4-triazol-5-yl)pyrazin-2-amine] | –
6.00 to 7.30 | – | CNC(=O)c1nc(-c2cccc(C(=O)NCCc3ccc(F)cc3)c2)cnc1N [Example 131, 3-amino-6-[3-({[2-(4-fluorophenyl)ethyl]amino}carbonyl)phenyl]-N-methylpyrazine-2-carboxamide] | –
– | – | Nc1ncc(-c2cccc(NC(=O)Cc3ccc(F)cc3Cl)c2)nc1C(=O)N[C@H]1CCCNC1 [Example 888, 3-amino-6-(3-{[(2-chloro-4-fluorophenyl)acetyl]amino}phenyl)-N-[(3S)-piperidin-3-yl]pyrazine-2-carboxamide] | pIC50 [1]: > 7.30
6.00 to 7.30 | – | CNC(=O)c1nc(-c2cccc(CNCc3ccc(Cl)cc3F)c2)cnc1N [Example 425, 3-amino-6-[3-({[(4-chloro-2-fluorophenyl)methyl]amino}methyl)phenyl]-N-methylpyrazine-2-carboxamide] | –
– | – | Nc1ncc(-c2cccc(C(=O)NCc3ccc(F)cc3)c2)nc1C(=O)N[C@H]1CCCNC1 [Example 842, 3-amino-6-[3-({[(4-fluorophenyl)methyl]amino}carbonyl)phenyl]-N-[(3S)-piperidin-3-yl]pyrazine-2-carboxamide] | pIC50 [1]: > 7.30
– | – | Nc1ncc(-c2cccc(CNS(=O)(=O)c3ccc4c(c3)OCCO4)c2)nc1C(=O)N[C@H]1CCCNC1 [Example 937, 3-amino-6-(3-{[(2,3-dihydro-1,4-benzodioxin-6-ylsulfonyl)amino]methyl}phenyl)-N-[(3S)-piperidin-3-yl]pyrazine-2-carboxamide] | pIC50 [1]: > 7.30
– | ≤ 5.00 | CC(=NNc1ccc([N+](=O)[O-])cc1)c1nc(-c2cccc(C(=O)NCc3ccccc3)c2)cnc1N [Example 635, 3-(5-Amino-6-{1-[(4-nitro-phenyl)-hydrazono]-ethyl}-pyrazin-2-yl)-N-benzyl-benzamide] | –
– | 6.00 to 7.30 | Cn1nc(-c2nc(-c3cccc(C(=O)N[C@H]4CCc5ccccc54)c3)cnc2N)nc1C1CCCNC1 (stereo partly drawn) [Example 735, 3-(5-amino-6-(1-methyl-5-piperidin-3-yl-1H-1,2,4-triazol-3-yl)pyrazin-2-yl]-N-[(1S)-2,3-dihydro-1H-inden-1-yl]benzamide] | –
– | 6.00 to 7.30 | CNC(=O)c1nc(-c2cccc(CN[C@H]3CCC[C@@H]3OCc3ccccc3)c2)cnc1N [Example 499, 3-amino-N-methyl-6-{3-[({(1S,2S)-2-[(phenylmethyl)oxy]cyclopentyl}amino)methyl]phenyl}pyrazine-2-carboxamide] | –

pIC50 | pIC50 (Table 11, Chk1 only) | SMILES | also measured
– | – | Nc1ncc(-c2cccc(CNC(=O)c3ccc(Br)cc3F)c2)nc1-c1nc([C@H]2CCCNC2)n[nH]1 [Example 944, N-{[3-(5-amino-6-{3-[(3S)-piperidin-3-yl]-1H-1,2,4-triazol-5-yl}pyrazin-2-yl)phenyl]methyl}-4-bromo-2-fluorobenzamide] | pIC50 [1]: > 7.30
– | 6.00 to 7.30 | C/C(=N\N1CCCCCC1)c1nc(-c2cccc(C(=O)NCc3ccccc3)c2)cnc1N [Example 674, 3-{5-amino-6-[(1E)-N-azepan-1-ylethanimidoyl]pyrazin-2-yl}-N-(phenylmethyl)benzamide] | –
– | 5.00 to 6.00 | Nc1ncc(-c2cccc(CN[C@H]3CCc4ccccc43)c2)nc1C(=O)NCCc1ccccc1 [Example 545, 3-amino-6-(3-{[(1S)-2,3-dihydro-1H-inden-1-ylamino]methyl}phenyl)-N-(2-phenylethyl)pyrazine-2-carboxamide] | –
– | 6.00 to 7.30 | Nc1ncc(-c2cccc(CO)c2)nc1-c1nc(-c2cccs2)n[nH]1 [Example 583, (3-{5-amino-6-[3-(2-thienyl)-1H-1,2,4-triazol-5-yl]pyrazin-2-yl}phenyl)methanol] | –
6.00 to 7.30 | – | CNC(=O)c1nc(-c2cccc(C(=O)NCc3ccc(N4CCOCC4)cc3)c2)cnc1N [Example 343] | –
5.00 to 6.00 | – | CNC(=O)c1nc(-c2cccc(C(=O)N[C@@H]3CCN(C(=O)OC(C)(C)C)C3)c2)cnc1N [Example 357, 1,1-dimethylethyl (3R)-3-{[(3-{5-amino-6-[(methylamino)carbonyl]pyrazin-2-yl}phenyl)carbonyl]amino}pyrrolidine-1-carboxylate] | –
6.00 to 7.30 | – | CNC(=O)c1nc(-c2cccc(C(=O)NCc3ccccc3N)c2)cnc1N [Example 231, 3-amino-6-[3-({[(2-aminophenyl)methyl]amino}carbonyl)phenyl]-N-methylpyrazine-2-carboxamide] | –
– | – | Nc1ncc(-c2cccc(CNC(=O)c3ccc(F)cc3)c2)nc1C(=O)N[C@H]1CCCNC1 [Example 882, 3-amino-6-[3-({[(4-fluorophenyl)carbonyl]amino}methyl)phenyl]-N-[(3S)-piperidin-3-yl]pyrazine-2-carboxamide] | pIC50 [1]: > 7.30
– | ≤ 5.00 | CC(C)(C)OC(=O)N1CC[C@@H](CNC(=O)c2nc(-c3cccc(C(=O)N[C@H]4CCc5ccccc54)c3)cnc2N)C1 [Example 752, 1,1-dimethylethyl (3S)-3-[({[3-amino-6-(3-{[(1S)-2,3-dihydro-1H-inden-1-ylamino]carbonyl}phenyl)pyrazin-2-yl]carbonyl}amino)methyl]pyrrolidine-1-carboxylate] | –
6.00 to 7.30 | – | CNC(=O)c1nc(-c2cccc(C(=O)NCc3cc(C)cc(C)c3)c2)cnc1N [Example 212, 3-amino-6-[3-({[(3,5-dimethylphenyl)methyl]amino}carbonyl)phenyl]-N-methylpyrazine-2-carboxamide] | –
6.00 to 7.30 | – | CNC(=O)c1nc(-c2cccc(NC(=O)CCc3ccccc3)c2)cnc1N [Example 159, 3-amino-N-methyl-6-{3-[(3-phenylpropanoyl)amino]phenyl}pyrazine-2-carboxamide] | –
6.00 to 7.30 | – | CNC(=O)c1nc(-c2cccc(C(=O)NCc3ccccc3O)c2)cnc1N [Example 327, 3-amino-6-[3-({[(2-hydroxyphenyl)methyl]amino}carbonyl)phenyl]-N-methylpyrazine-2-carboxamide] | –
6.00 to 7.30 | – | CNC(=O)c1nc(-c2cccc(C(=O)NCc3c(F)ccc(C)c3Cl)c2)cnc1N [Example 296, 3-amino-6-[3-({[(2-chloro-6-fluoro-3-methylphenyl)methyl]amino}carbonyl)phenyl]-N-methylpyrazine-2-carboxamide] | –
5.00 to 6.00 | – | CNC(=O)c1nc(-c2ccc(C(=O)NCc3ccccc3)cc2)cnc1N [Example 150, 3-amino-N-methyl-6-(4-{[(phenylmethyl)amino]carbonyl}phenyl)pyrazine-2-carboxamide] | –
– | 6.00 to 7.30 | CCCc1ccc(CNCc2cccc(-c3cnc(N)c(C(=O)NC)n3)c2)cc1 [Example 443, 3-amino-N-methyl-6-[3-({[(4-propylphenyl)methyl]amino}methyl)phenyl]pyrazine-2-carboxamide] | –
– | 6.00 to 7.30 | CNC(=O)c1nc(-c2cccc(CNC3CCc4cccc(F)c43)c2)cnc1N (centres unmarked) [Example 502, 3-amino-6-(3-{[(7-fluoro-2,3-dihydro-1H-inden-1-yl)amino]methyl}phenyl)-N-methylpyrazine-2-carboxamide] | –
